Assay results taken from patent US8809280B2, “Therapeutic peptides” (Lytix Biopharma AS, priority 2009, dated 2014).
Values after ≈ are worked out from the molar mass of the structure shown. Where two headings read alike, the source gives them in different places.

How the values were obtained:
Assay type in all cases: cell-based
[1] = tested on: Staphylococcus aureus (ATTC 25923); test: microbe, parasite or virus in culture; conditions: for MIC: Staphylococcus aureus; for Therapeutic index S. aureus: EC50 RBC divided by MIC
Description: (§1) The antimicrobial testing was conducted by TosLab A/S (Tromsø, Norway). Each compound was diluted to 1 mg/ml in water and tested in duplicates at 200, 100, 50, 35, 15, 10, 5, 2.5, 1, 0.5 μg/ml except 4n which was tested at 50, 35, 15, 10, 5, 2.5, 1, 0.5 μg/ml due to solubility problems. All tested compounds were di TFA salts.
(§2) The bacterial strains were grown in 2% Bacto Peptone water until exponential growth was achieved. […] A bacterial concentration of 2×10^6 cfu/ml was used. Both negative control (no peptide) and positive control (Gentamicin) was used for all bacterial strains. Growth or no growth was judged by the turbidity of the wells.
Staphylococcus aureus (ATTC 25923)
(§3) Antimicrobial assays: 200 μg/ml
(§4) Suitable methodologies are described in Example 1.
(§5) Each compound was tested in duplicates at 200, 100, 50, 35, 15, 10, 5, 2.5, 1, 0.5 μg/ml. All tested compounds were di-trifluoroacetic acid salts.

[2] = tested on: Escherichia coli (ATTC 25922); test: microbe, parasite or virus in culture; conditions: for MIC: Escherichia coli; for Therapeutic index E. coli: EC50 RBC divided by MIC
Description: as §1, §2
Escherichia coli (ATTC 25922)
as §3, §4, §5

[3] = tested on: methicillin resistant Staphylococcus aureus (ATCC 33591); test: microbe, parasite or virus in culture; conditions: for MIC: Staphylococcus aureus; for Therapeutic index MRSA: EC50 RBC divided by MIC
Description: as §1, §2
Methicillin resistant Staphylococcus aureus (ATCC 33591)
as §3, §4, §5

MRC-5 = test: Toxicity assay MRC-5; conditions: highest concentration tested 500 μg/ml; for IC50: Homo sapiens, MRC5, Example 2
Description: Cells for Toxicity Studies Used MRC-5 and human RBC MRC-5 assay: 500 μg/ml

[4] = tested on: methicillin resistant Staphylococcus epidermidis (ATCC 27626); test: microbe, parasite or virus in culture; conditions: for MIC: Staphylococcus epidermidis, ATCC 27626 / MRSE; for Therapeutic index MRSE: EC50 RBC divided by MIC
Description: as §1, §2
Methicillin resistant Staphylococcus epidermidis (ATCC 27626)
as §3, §4, §5

human red blood cells = test: cells; conditions: Erythrocyte, highest concentration tested 1000 μg/ml
Description: The hemolytic testing against human erythrocytes was conducted by Lytix Biopharma A/S (Tromso, Norway). Each compound was tested from a concentration of 1 mg/ml and lower, except 4k and 4n which was only tested up to 0.5 mg/ml due to solubility problems. 8 mL of blood was collected from adult healthy male donors. The blood was divided equally and distributed in a commercial available EDTA containing test tube (BD vacutainer, 7.2 mg K2 EDTA) and in a 10 mL reaction vial containing 40 μL of a heparin solution (1000 U/mL in 0.9% sodium chloride). After 30 minutes the hematocrit of the EDTA treated blood was determined. The heparinized blood was centrifuged for 10 minutes at 1500 rpm and the supernatant removed. Subsequently the RBCs were washed with prewarmed PBS three times, and diluted to 10% hematocrit. The compounds dissolved in PBS (concentration 1 μg/mL to 1000 µg/mL) and the erythrocytes were incubated under agitation at 37° C. for one hour. A positive control with an end concentration of 0.1% TRITON X-100 (nonionic surfactant) and a negative control containing pure PBS buffer were included. The samples were centrifuged (4000 rpm) for 5 minutes and the absorption of the supernatant was measured at 405 nm. The values given in Table 1A correspond to 50% hemolysis.
The plasma fraction of heparinized human blood was first removed by centrifugation and three additional washing steps with 37° C. pre-warmed phosphate buffered saline (PBS). Subsequently, the human RBC were diluted to 10% hematocrit and the β^2,2-amino acid derivatives were dissolved in PBS providing concentrations ranging from 1-1000 μg/mL. The diluted RBC were added to the compound solutions to a final erythrocyte concentration of 1% v/v. PBS and TRITON X-100 (non-ionic surfactant), in a final concentration of 0.1% v/v, were included as negative and positive control. After 1 hour agitated incubation at 37° C. the samples were centrifuged at 4000 rpm for 5 min. Release of hemoglobin was determined by measuring the absorbance of the supernatant at 405 nm. Hemolytic activity was calculated as the ratio of treated sample with β^2,2-amino acid derivative and tenside treated sample according to the formula: […]

[5] = Example 2, values separated by / are repeat tests, read-out: Antimicrobial potency (MIC) S. aureus
[6] = Example 2, values separated by / are repeat tests, read-out: Antimicrobial potency (MIC) E. coli
[7] = ATCC 33591 / MRSA, Example 2, values separated by / are repeat tests, read-out: Antimicrobial potency (MIC) MRSA
[8] = Example 2, values separated by / are repeat tests, read-out: Antimicrobial potency (MIC) MRSE
[9] = Homo sapiens, Example 2, * low solubility in the test media, read-out: Toxicity RBC (EC50)
[10] = Example 2, values separated by / are repeat tests
[11] = ATCC25923, Example 4, ATCC 25923, di-trifluoroacetate salts, highest concentration tested 200 μg/ml, read-out: MIC S. aureus
[12] = ATCC25922, Example 4, ATCC 25922, di-trifluoroacetate salts, highest concentration tested 200 μg/ml, read-out: MIC E. coli
[13] = ATCC33591, Example 4, ATCC 33591, di-trifluoroacetate salts, highest concentration tested 200 μg/ml, read-out: MIC MTRSA
[14] = Example 4, ATCC 27626, di-trifluoroacetate salts, highest concentration tested 200 μg/ml, read-out: MIC MRSE
[15] = Example 4, hemolytic activity, human red blood cells, read-out: EC50 RBC

MIC [1, 5] [µg/mL]	MIC [2, 6] [µg/mL]	MIC [3, 7] [µg/mL]	MIC [4, 8] [µg/mL]	Antimicrobial potency (MIC) S. aureus [1, 10] [µg/mL]	Antimicrobial potency (MIC) MRSE [4, 10] [µg/mL]	MIC [1, 11] [µM]	MIC [2, 12] [µM]	MIC [3, 13] [µM]	MIC [4, 14] [µM]	Structure (SMILES)	IC50 (MRC-5) [µg/mL]	EC50 (human red blood cells; [9]) [µg/mL]	Toxicity MRC-5 (MRC-5; Example 2) [µg/mL]	EC50 (human red blood cells; [15])	Therapeutic index S. aureus [1]	Therapeutic index E. coli [2]	Therapeutic index MRSA [3]	Therapeutic index MRSE [4]
100	> 200	100	50							NCCNC(=O)C(CN)(CCc1ccccc1)CCc1ccccc1 [Compound 5, N-(2-aminoethyl)-2-(aminomethyl)-2-phenethyl-4-phenylbutanamide]	21.5 (≈ 63.3 µM)	> 1000						
3.75		2.5	2.5	5	5					CC(C)(C)c1cc(CC(CN)(Cc2cc(C(C)(C)C)cc(C(C)(C)C)c2)C(=O)NCCN)cc(C(C)(C)C)c1 [Compound 14, 3-amino-N-(2-aminoethyl)-2,2-bis(3,5-di-tert-butylbenzyl)propanamide]	7.5 (≈ 14 µM)	> 62.5	8.5					
10	35	5	15							CN(C)CCNC(=O)C(CN)(Cc1ccc(C(F)(F)F)cc1)Cc1ccc(C(F)(F)F)cc1 [Compound 28, 3-amino-N-(2-(dimethylamino)ethyl)-2,2-bis(4-(trifluoromethyl)benzyl)-propanamide]		329						
10	10	10	5							CN1CCN(C(=O)C(CN)(Cc2ccc(C(C)(C)C)cc2)Cc2ccc(C(C)(C)C)cc2)CC1 [Compound 29, 3-amino-2,2-bis(4-tert-butylbenzyl)-1-(4-methylpiperazin-1-yl)propan-1-one]		241						
> 200	200	200	35							Cc1cc(C)cc(CC(CN)(Cc2cc(C)cc(C)c2)C(=O)N2CCN(C)CC2)c1 [Compound 30, 3-amino-2,2-bis(3,5-dimethyl-benzyl)-1-(4-methylpiperazin-1-yl)propan-1-one]		> 1000						
200	200	200	200							CN1CCN(C(=O)C(CN)(CCCc2ccccc2)CCCc2ccccc2)CC1 [Compound 31, 2-(aminomethyl)-1-(4-methyl-piperazin-1-yl)-5-phenyl-2-(3-phenylpropyl)pentan-1-one]		> 1000						
10	15	5	10							CN1CCN(C(=O)C(CN)(Cc2ccc3ccccc3c2)Cc2ccc3ccccc3c2)CC1 [Compound 32, 3-amino-1-(4-methylpiperazin-1-yl)-2,2-bis(naphthalen-2-ylmethyl)propan-1-one]		225						
35	50	10	50							CN1CCN(C(=O)C(CN)(Cc2ccc(C(F)(F)F)cc2)Cc2ccc(C(F)(F)F)cc2)CC1 [Compound 33, 3-amino-1-(4-methylpiperazin-1-yl)-2,2-bis(4-(trifluoromethyl)benzyl)propan-1-one]		376						
10	10	10	10							CN(C)CCN1CCN(C(=O)C(CN)(Cc2ccc(C(C)(C)C)cc2)Cc2ccc(C(C)(C)C)cc2)CC1 [Compound 34, 3-amino-2,2-bis(4-tert-butylbenzyl)-1-(4-(2-(dimethylamino)ethyl)piperazin-1-yl)propan-1-one]		252						
200	200	50	50							CN(C)CCN1CCN(C(=O)C(CN)(CCCc2ccccc2)CCCc2ccccc2)CC1 [Compound 36, 2-(aminomethyl)-1-(4-(2-(dimethyl-amino)ethyl)piperazin-1-yl)-5-phenyl-2-(3-phenylpropyl)pentan-1-one]		> 1000						
15	35	2.5	10							CN(C)CCN1CCN(C(=O)C(CN)(Cc2ccc3ccccc3c2)Cc2ccc3ccccc3c2)CC1 [Compound 37, 3-amino-1-(4-(2-(dimethylamino)ethyl)piperazin-1-yl)-2,2-bis(naphthalen-2-ylmethyl)propan-1-one]		301						
35	100	5	50							CN(C)CCN1CCN(C(=O)C(CN)(Cc2ccc(C(F)(F)F)cc2)Cc2ccc(C(F)(F)F)cc2)CC1 [Compound 38, 3-amino-1-(4-(2-(dimethylamino)ethyl)piperazin-1-yl)-2,2-bis(4-(trifluoromethyl)benzyl)propan-1-one]		862						
						315	315	315	315	CN1CCN(C(=O)C(CN)(CCCc2ccccc2)CCCc2ccccc2)CC1 [Entry 5a]				> 1000 µg/mL				
						49	70	14	70	CN1CCN(C(=O)C(CN)(Cc2ccc(C(F)(F)F)cc2)Cc2ccc(C(F)(F)F)cc2)CC1 [Entry 5b]				525 µM	11	7.5	38	7.5
						56	160	56	56	CN(C)CCNC(=O)C(CN)(CCCc1ccccc1)CCCc1ccccc1 [Entry 6a]				507 µM	9.1	3.2	9.1	9.1
						14	50	7.1	21	CN(C)CCNC(=O)C(CN)(Cc1ccc(C(F)(F)F)cc1)Cc1ccc(C(F)(F)F)cc1 [Entry 6b]				468 µM	33	9.4	66	22
						71	336	59	25	NCCNC(=O)C(CN)(CCCc1ccccc1)CCCc1ccccc1 [Entry 7a]				1380 µM	19	4.1	23	55
						15	52	7.4	15	NCCNC(=O)C(CN)(Cc1ccc(C(F)(F)F)cc1)Cc1ccc(C(F)(F)F)cc1 [Entry 7b]				425 µM	28	8	57	28
